Experimental data as given in paper PMC5715404, “Design, Synthesis, and Evaluation of Ribose-Modified Anilinopyrimidine Derivatives as EGFR Tyrosine Kinase Inhibitors” (Frontiers in Chemistry, 2017).
“Also recorded” adds a separate entry of the source.

Key:
EGFR WT = molecular target: T1, EGFR WT (Homo sapiens, UniProt P00533); experiment: ELISA-based EGFR-TK kinase assay, EGFR WT; assay type: biochemical; details: 10 μmol/L ATP solution, 37°C 1 h, mean ± SD of at least two determinations, read-out: EGFR tyrosine kinase IC50, EGFR
T1 construct: Kinases domain of EGFR WT and EGFR L858R/T790M were expressed; made in house; host or cells: baculovirus expression system (Bac-to-Bac)
Description: (§1) Kinases domain of EGFR WT and EGFR L858R/T790M were expressed using the Bac-to-Bac™ baculo virus expression system (Invitrogen, Carlsbad, CA, USA) and purified in Ni-NTA columns (QIAGEN Inc., Valencia, CA, USA). The kinase activity was evaluated with enzyme-linked immunosorbent assay (ELISA). Briefly, 20 μg/mL Poly (Glu, Tyr) 4:1 (Sigma, St. Louis, MO) was precoated in 96-well ELISA plates as substrate. After adding 50 μL of 10 μmol/L ATP solution which was diluted in kinase reaction buffer (50 mM HEPES pH 7.4, 20 mM MgCl2, 0.1 mM MnCl2, 0.2 mM Na3VO4, 1 mM DTT), the plate was treated with 1 μL of indicated concentrations of compounds (dissolved in DMSO) per well. Experiments at each concentration were performed in duplicate. Reaction was initiated by adding tyrosine kinase diluted in kinase reaction buffer. After incubation at 37°C for 1 h, the wells were washed three times with phosphate buffered saline (PBS) containing 0.1% Tween 20 (T-PBS). One hundred microliters of anti-phosphotyrosine (PY99) antibody (1:1,000, Santa Cruz Biotechnology, Santa Cruz, CA) diluted in T-PBS containing 5 mg/mL BSA was added and the plate was incubated at 37°C for 30 min. After the plate was washed three times, 100 μL horseradish peroxidase-conjugated goat anti-mouse IgG (1:2,000, Calbiochem, SanDiego, CA) was added and the plate was incubated at 37°C for 30 min. The plate was washed, added with 100 μL citrate buffer (0.1 M, pH 5.5) containing 0.03% H2O2. Then 2 mg/mL o-phenylenediamine was added, and samples were incubated at room temperature until color emerged. The reaction was terminated immediately by adding 50 μL of 2 M H2SO4. Plate was read using a multiwell spectrophotometer (VERSAmax™, Molecular Devices, Sunnyvale, CA, USA) at 492 nm. The inhibitory rate (%) was calculated with the formula: [1 − (A492 treated/A492 control)] × 100%. IC50 values were calculated from the inhibitory curves.

EGFR L858R/T790M = molecular target: T2, EGFR L858R/T790M (Homo sapiens, UniProt P00533, L858R/T790M); experiment: ELISA-based EGFR-TK kinase assay, EGFR L858R/T790M; assay type: biochemical; details: for selectivity for EGFR L858R/T790M over WT EGFR (in words): EGFR L858R/T790M versus WT EGFR; for IC50 / inhibitory activity against EGFR tyrosine kinases (in words): ELISA; for IC50: 10 μmol/L ATP solution, 37°C 1 h, mean ± SD of at least two determinations, read-out: EGFR tyrosine kinase IC50, EGFR T790M/L858R; for inhibitory activity against EGFR tyrosine kinases (in words): EGFR WT and EGFR L858R/T790M
T2 construct: Kinases domain of EGFR WT and EGFR L858R/T790M were expressed; made in house; host or cells: baculovirus expression system (Bac-to-Bac)
Description: as §1

T2 sequence (P00533 712-979 T790M/L858R limits assumed): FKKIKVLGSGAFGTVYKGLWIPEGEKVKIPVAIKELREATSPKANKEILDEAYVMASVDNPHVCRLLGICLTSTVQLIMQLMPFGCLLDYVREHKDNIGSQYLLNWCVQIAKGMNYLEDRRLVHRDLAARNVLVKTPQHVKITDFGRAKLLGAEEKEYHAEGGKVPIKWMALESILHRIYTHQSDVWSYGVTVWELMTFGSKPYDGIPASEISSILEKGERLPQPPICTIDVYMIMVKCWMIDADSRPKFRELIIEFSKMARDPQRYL
T1 sequence (P00533 712-979 limits assumed): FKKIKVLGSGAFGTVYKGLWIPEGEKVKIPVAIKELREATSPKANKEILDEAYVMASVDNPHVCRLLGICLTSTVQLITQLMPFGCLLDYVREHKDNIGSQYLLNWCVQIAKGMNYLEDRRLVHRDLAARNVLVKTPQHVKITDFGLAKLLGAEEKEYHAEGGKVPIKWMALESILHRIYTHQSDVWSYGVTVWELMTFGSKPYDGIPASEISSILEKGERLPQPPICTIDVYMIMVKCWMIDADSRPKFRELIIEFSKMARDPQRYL

Row | SMILES | IC50 (EGFR WT) | IC50 (EGFR L858R/T790M) | selectivity for EGFR L858R/T790M over WT EGFR (in words) (EGFR L858R/T790M) | inhibitory activity against EGFR tyrosine kinases (in words) (EGFR L858R/T790M)
1 | C=CC(=O)N[C@H]1O[C@H](CO)[C@@H](Oc2nc(Nc3ccc(N4CCN(C)CC4)cc3OC)ncc2Cl)[C@H]1O[Si](C)(C)C(C)(C)C [Compound 1d, 3-O-[5-chloro-2-N-(2-methoxy-4-(4-methylpiperazin-1-yl)phenyl)pyrimidin-4-yl]-2-O-tert-butyldimethylsilyl-α-D-ribofuranosyl acrylamide] | > 10 µM | > 10 µM | – | no inhibitory activities; also recorded: no inhibitory activity
2 | COc1cc(N2CCN(C)CC2)ccc1Nc1ncc(Cl)c(OC[C@H]2O[C@@H](N=[N+]=[N-])[C@H](O)[C@@H]2O)n1 [Compound 24] | > 10 µM | > 10 µM | – | –
3 | COc1cc(N2CCN(C)CC2)ccc1Nc1ncc(Cl)c(O[C@H]2[C@@H](O[Si](C)(C)C(C)(C)C)[C@H](N=[N+]=[N-])O[C@@H]2CO)n1 [Compound 25] | > 10 µM | > 10 µM | – | –
4 | COc1cc(N2CCN(C)CC2)ccc1Nc1ncc(Cl)c(OC[C@H]2OC(O)[C@H](O)[C@@H]2O)n1 (stereo partly drawn) [Compound 26] | > 10 µM | > 10 µM | – | –

Now from value to compound, other results behind:

Row | IC50 (EGFR WT) | IC50 (EGFR L858R/T790M) | SMILES | selectivity for EGFR L858R/T790M over WT EGFR (in words) (EGFR L858R/T790M) | inhibitory activity against EGFR tyrosine kinases (in words) (EGFR L858R/T790M)
5 | > 10 µM | 0.62 µM | C=CC(=O)N[C@H]1[C@H]2OC(C)(C)O[C@H]2O[C@@H]1COc1nc(Nc2ccc(N3CCN(C)CC3)cc2OC)ncc1Cl [Compound 1a, 1,2-O-isopropylidene-3-N-acryloyl-3-deoxy-5-O-[5-chloro-2-N-(2-methoxy-4-(4-methylpiperazin-1-yl)phenyl)pyrimidin-4-yl]-α-D-ribofuranoside] | potent and specific inhibitory activity; also recorded: good selectivity | –
6 | > 10 µM | 2.64 µM | C=CC(=O)N[C@@H]1[C@@H](COc2nc(Nc3ccc(N4CCN(C)CC4)cc3OC)ncc2Cl)OC(O)[C@@H]1O (stereo partly drawn) [Compound 1b, 3-N-acryloyl-3-deoxy-5-O-[5-chloro-2-N-(2-methoxy-4-(4-methylpiperazin-1-yl)phenyl)pyrimidin-4-yl]-D-ribofuranose] | specific inhibitory activity | –
7 | > 10 µM | > 10 µM | C=CC(=O)NC1O[C@H](COc2nc(Nc3ccc(N4CCN(C)CC4)cc3OC)ncc2Cl)[C@@H](O)[C@H]1O (stereo partly drawn) [Compound 1c, 5-O-[5-chloro-2-N-(2-methoxy-4-(4-methylpiperazin-1-yl)phenyl)pyrimidin-4-yl]-D-ribofuranosyl acrylamide] | – | no inhibitory activities; also recorded: no inhibitory activity
